# Peptide text beside a SMILES is read from it. * marks the point of attachment. Cbz = O=C(OCc1ccccc1)*
# How the values were obtained:
# [1] = tested on: HepG2 cells; assay: Fatty acid ([3H]oleate:albumin) influx in HepG2 cells; format: cell-based, human
# [2] = tested on: cytosolic LPC; assay: Cytosolic LPC concentration in HepG2 cells; format: cell-based, human; settings: Homo sapiens, HepG2, 0.5 h; 30 min treatment (Fig. 7); read-out: suppression of cytosolic LPC (IC50)
# Experimental: LPC concentration in cytosolic supernatants was measured as previously described (Kishimoto T et al. Clin. Biochem. 2002; 35: 411-416).
# [3] = target: T1, organic anion-transporting polypeptide 1 in HepG2 cells (Homo sapiens, UniProt P46721); settings: uptake by HepG2 cells; Chamulitrat et al. 2009; read-out: half-maximal inhibitory concentration (IC50) for competition with UDCA-LPE uptake; cited from earlier work
# T1 construct: host or cells: HepG2 (endogenous)
# T1 sequence (P46721 1-670): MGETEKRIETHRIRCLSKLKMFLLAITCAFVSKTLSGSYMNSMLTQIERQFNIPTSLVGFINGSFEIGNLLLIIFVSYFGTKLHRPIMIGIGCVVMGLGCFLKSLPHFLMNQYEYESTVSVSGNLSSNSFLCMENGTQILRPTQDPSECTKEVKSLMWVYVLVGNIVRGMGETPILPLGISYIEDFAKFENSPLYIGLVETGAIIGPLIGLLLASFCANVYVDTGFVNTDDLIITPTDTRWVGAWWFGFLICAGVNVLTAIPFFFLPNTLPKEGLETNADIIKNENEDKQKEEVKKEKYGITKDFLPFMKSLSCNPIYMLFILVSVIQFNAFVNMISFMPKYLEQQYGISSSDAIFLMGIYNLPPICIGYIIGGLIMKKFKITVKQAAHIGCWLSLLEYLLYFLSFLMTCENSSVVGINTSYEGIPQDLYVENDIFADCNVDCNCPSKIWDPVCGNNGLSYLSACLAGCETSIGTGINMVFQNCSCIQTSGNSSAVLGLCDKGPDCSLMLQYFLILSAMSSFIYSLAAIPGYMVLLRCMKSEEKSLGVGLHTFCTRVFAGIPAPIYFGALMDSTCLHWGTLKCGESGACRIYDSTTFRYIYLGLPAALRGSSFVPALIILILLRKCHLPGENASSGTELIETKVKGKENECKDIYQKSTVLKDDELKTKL
# [4] = tested on: DRM-PM proteins iPLA2ß, CD36, FABPPM, caveolin1; assay: DRM-PM protein levels in HepG2 cells by semi-quantitative densitometry; format: cell-based, human; settings: bafilomycin 50 nM, 16 h
# [5] = tested on: transcripts of all complex subunits; assay: In vitro transcription in native HepG2 nuclear extracts exposed to LPC-conditioned delipidated cytosol; format: biochemical, human; settings: delipidated cytosol incubated with LPC 1 h
# [6] = tested on: HepG2 cells; assay: [3H]glucose influx in HepG2 cells; format: cell-based, human; settings: at 10 mM glucose; MßCD
compound,measurement,setting,value
"O=C1O/C(=C/Br)CCC1c1cccc2ccccc12 (stereo not shown) [BEL, bromoenol lactone, reference compound]",IC50,"[1]; Homo sapiens, HepG2, 1-h treatment with increasing concentrations (Fig. 2A), read-out: inhibition of fatty acid influx (IC50)",52 µM
same,IC50,[2],43 µM
"CC(C)C[C@@H](C=O)NC(=O)[C@H](CC(C)C)NC(=O)[C@H](CC(C)C)NC(=O)OCc1ccccc1 [MG132, reference compound] (Cbz-Leu-Leu-Leu-aldehyde)",effect on fatty acid uptake,[1],no effect on uptake
"O=C([O-])[C@H](O)[C@@H](O)[C@H](O)[C@H](O)CO.[Na+] [Na-gluconate, reference compound]",passive translocation component of fatty acid influx,[1],inhibited to negligible levels
"C[C@H](CCC(=O)O)[C@H]1CC[C@H]2[C@@H]3[C@@H](O)C[C@@H]4C[C@H](O)CC[C@]4(C)[C@H]3CC[C@]12C [UDCA, ursodeoxycholic acid]",IC50,[3],20 µM
CO/C1=C\C(C)=C\[C@@H](C)[C@@H](O)[C@@H](C)C/C(C)=C/C=C/[C@H](OC)[C@@H]([C@@H](C)[C@@H](O)[C@H](C)[C@@]2(O)C[C@@H](O)[C@H](C)[C@@H](C(C)C)O2)OC1=O [bafilomycin],fatty acid influx,"[1]; bafilomycin 50 nM, 16 h, untreated 26.95 ± 2.4",33.33 ± 5.1 nmol/mg protein/min
same,increase in DRM-PM CD36,[4],40.85 ± 10.56%
same,increase in DRM-PM FABPPM,[4],25.99 ± 3.35%
same,increase in DRM-PM caveolin1,[4],60.76 ± 7.03%
same,increase in DRM-PM iPLA2ß,[4],51.56 ± 9.85%
lysophosphatidylcholine [LPC],LPC concentration at which the transcripts of all complex subunits were downregulated,[5],5 µmol/mg protein
"methyl-beta-cyclodextrin [MßCD, reference compound]",additional reduction of fatty acid influx,[1],60%
same,influx of [3H]glucose,[6],135.70 ± 14.7 nmol/mg protein/min

# — patent EP2929785A1, “A PLA inhibitor for inhibition of fat absorption” (PAT GmbH, priority 2014, dated 2015)
